Measurements taken from patent US11419913B2, “Pharmaceutical compositions for inhibiting inflammatory cytokines” (S.I.S. SHULOV INNOVATIVE SCIENCE LTD., priority 2018, dated 2022).
Where a SMILES comes first, the peptide text is derived from it. [ ]: non-standard residue; d: D form. The star is where a group is joined. pGlu = O=C1CC[C@@H](C(=O)O)N1; Octanoyl = CCCCCCCC(=O)*

Tests used:
[1] = tested on: IFNγ; experiment: IFN-γ production in LPS-stimulated human PBMCs; format: cell-based; conditions: ZEP3 40, 100 and 150 μg/ml, 1 hr pre-treatment, LPS 24 hours; 4 donors (FIG. 9)
Description: The effect of the peptide ZEP3 (SEQ ID NO: 1) on cytokine production was evaluated in an in vitro human model of inflammation. Human Peripheral Blood Mononuclear Cells (PBMCs) were stimulated using Lipopolysaccharide (LPS) to produce cytokines.
Method: Briefly, cryopreserved human PBMCs of four healthy non-smokers, not on any corticosteroids or other inflammatory drugs, were grown in RPMI 1640 with 10% heat inactivated fetal bovine serum (FBS), 100 U/ml penicillin and 100 μg/mL streptomycin (complete growth medium, CGM).
Human PBMCs were thawed and plated for all groups (1-6, Table 7), and rested for 1 hour before treatment. […] 24 hours post LPS addition, Almar Blue fluorescent at 585 nm (correlating with cell viability), is measured and supernatant is collected for cytokine determination. […]
Detailed method: cells were thawed according to manufacturer's instructions, washed in CGM and assessed for viability using trypan blue staining. […] At 24 hours post LPS stimulation, plates were read for assessment of cell viability and cell culture supernatants were harvested and stored at −80° C. for cytokine analysis. […] Cytokine production and percentage of sample stimulation vs. the average of the stimulation control were calculated.

[2] = tested on: TNF alpha; experiment: ZEP3 pretreatment, expression of TNF alpha by LPS treated macrophages; format: cell-based, mouse; conditions: ZEP3 50 μg/mL 1 hour before LPS 100 ng/mL
Description: Macrophages originating from C57BL/6 mice were cultured at a density of 200,000 cells/mL in a 24-well plate (500 μl wells) and placed in a 37° C., 5% CO2 Incubator overnight. Following the overnight incubation media were replaced with fresh media containing 50 μg/ml ZEP3. Following 1-hour incubation 100 ng/mL LPS was added to the appropriate wells, the plates were incubated for additional 24 hours, then the amount of TNF alpha in each well was measured.

CCCCCCCC(=O)NCCCC[C@H](NC(=O)[C@H](Cc1c[nH]c2ccccc12)NC(=O)[C@H](CC(N)=O)NC(=O)[C@@H]1CCC(=O)N1)C(=O)O [ZEP3, pGlu-Asn-Trp-Lys(Octanoyl)-OH] ([pGlu]NWK(Octanoyl)-OH)
interferon gamma (IFNγ) production [1]: significant reduction
TNF alpha ([2]; 24 hours): 101.2 pg/mL
% reduction of TNF alpha ([2]; vs LPS control): 46.7%
